The source of these data is patent EP3002287B1, “Thiochromeno[2,3-c]quinolin-12-one derivatives and their use as topoisomerase inhibitors” (National Defense Medical Center, priority 2014, dated 2016).

The subject of assay [1] is DU-145. Nature of the assay: MTT assay for cell cytotoxicity. Particulars: 72 h, at least three independent experiments, read-out: MTT assay (IC50 ± SD) DU-145. The format is cell-based, human. As for the experimental part: (§1) All of synthesis compounds were evaluated cell cytotoxicity by using MTT colorimetric assay on PC-3 and DU-145 cell lines. DU-145 and PC-3 are human hormone-refractory (androgen-independent) prostatic cancer cell lines from American Type Culture Collection (HTB-81™, ATCC, Rockville, MD)^125 and Bioresource Collection and Research Center (60122, BCRC, Taiwan)^126, respectively. Two of the "classical" cell lines were cultivated in RPMI-1640 medium supplemented with 5% fetal bovine serum (v/v), 100 U/mL penicillin, and […] streptomycin. Approximately 2 x 10^3 cells were seeded into each well of a 96-well plate and incubated in 5% CO2 at 37 °C for 24 h. To evaluate the in vitro cytotoxicity, all the synthetic compounds were dissolved in DMSO, prepared immediately before the experiments and diluted into the complete medium before being added to each well of a 96-well plate. Each compound was then added to the culture medium for designated various concentrations (0.15, 0.5, 1.5, 5, 15 µM). After 72 h, an amount of 100 µL of MTT (1 mg/mL) was added to each well, and the samples were incubated at 37 °C for 4 h. After removing the MTT solution, 100 µL of DMSO was added to each well and incubated at 37 °C for another 20 mins. The absorbency at 560 nm was measured by using an ELISA reader.
(§2) Results are expressed as mean values of at least three independent experiments. The IC50 values of testing compounds were described in Table 1. Table1. Effects of 10-Chloro-12H-thiochromeno[2,3-c]quinolin -12-one derivatives on cytotoxicity by MTT assay.
Background: Tetrazolium assays rely on reduction of a dye to a coloured formazan, in cell work by metabolically active cells.

The test system of assay [2] is PC-3. Nature of the assay: MTT assay for cell cytotoxicity. Type of assay: cell-based, human. Particulars: 72 h, at least three independent experiments, read-out: MTT assay (IC50 ± SD) PC-3. As for the experimental part:
as §1, §2

In assay [3] the target is T1, TOP I (Homo sapiens, UniProt P11387).
T1 construct: purchased TopoGEN TG2005H
T1 sequence (P11387 1-765): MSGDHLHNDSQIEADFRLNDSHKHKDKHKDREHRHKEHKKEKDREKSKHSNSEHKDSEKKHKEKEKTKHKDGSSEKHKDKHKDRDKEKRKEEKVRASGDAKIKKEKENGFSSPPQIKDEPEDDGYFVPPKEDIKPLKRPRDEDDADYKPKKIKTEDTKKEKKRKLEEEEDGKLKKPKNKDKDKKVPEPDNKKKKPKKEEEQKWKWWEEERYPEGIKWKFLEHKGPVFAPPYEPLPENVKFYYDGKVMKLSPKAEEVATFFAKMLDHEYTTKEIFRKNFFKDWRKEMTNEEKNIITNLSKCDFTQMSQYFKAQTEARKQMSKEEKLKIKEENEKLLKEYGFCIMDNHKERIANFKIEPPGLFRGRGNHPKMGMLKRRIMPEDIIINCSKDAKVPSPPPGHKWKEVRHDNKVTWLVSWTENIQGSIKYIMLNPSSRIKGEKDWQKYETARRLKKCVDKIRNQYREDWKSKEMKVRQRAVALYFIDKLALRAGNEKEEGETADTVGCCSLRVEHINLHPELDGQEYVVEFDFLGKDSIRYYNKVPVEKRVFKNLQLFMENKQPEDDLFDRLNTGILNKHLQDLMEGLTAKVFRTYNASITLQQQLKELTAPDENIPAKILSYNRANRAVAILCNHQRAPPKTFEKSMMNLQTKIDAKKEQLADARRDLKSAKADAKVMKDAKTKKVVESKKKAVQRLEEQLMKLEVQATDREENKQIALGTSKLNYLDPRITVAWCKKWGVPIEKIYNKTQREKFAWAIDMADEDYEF
Briefly: Topoisomerase I activity assay (DNA relaxation catalyzed by TOP I). The format is biochemical. The settings on record: primary assay at 25 and/or 50 µM. As for the experimental part:
According to the cell cytotoxicity, compounds 5, 7, 8, 16, 19, N2, N7, N8, N9, N14-N19, and N25 were also selected for primary TOP I and II activities assays at 25 and/or 50 µM (Fig. 2-4).

In assay [4] the target is T2, TOP II (Homo sapiens, UniProt P11388).
T2 construct: purchased TopoGEN TG-2000H-1
Nature of the assay: Topoisomerase II activity assay (TOP II-catalyzed relaxation of plasmid DNA). The format is biochemical. The settings on record: primary assay at 25 and/or 50 µM. The method, then: We also performed TOP 11-catalyzed relaxation of plasmid DNA assays(Fig. 5-7) to evaluate if compounds could inhibit TOP II. […] The IC50 value of compounds 7, N7, N8, N14, N15, N18, and N19 were about 10, 10, 1, 10, 5, 1, and 1 µM, respectively (detect by TopoGEN TG2005H, TG-2000H-1).

Read-outs that look alike come from different tables or passages of the source.

T2 sequence (P11388 whole entry): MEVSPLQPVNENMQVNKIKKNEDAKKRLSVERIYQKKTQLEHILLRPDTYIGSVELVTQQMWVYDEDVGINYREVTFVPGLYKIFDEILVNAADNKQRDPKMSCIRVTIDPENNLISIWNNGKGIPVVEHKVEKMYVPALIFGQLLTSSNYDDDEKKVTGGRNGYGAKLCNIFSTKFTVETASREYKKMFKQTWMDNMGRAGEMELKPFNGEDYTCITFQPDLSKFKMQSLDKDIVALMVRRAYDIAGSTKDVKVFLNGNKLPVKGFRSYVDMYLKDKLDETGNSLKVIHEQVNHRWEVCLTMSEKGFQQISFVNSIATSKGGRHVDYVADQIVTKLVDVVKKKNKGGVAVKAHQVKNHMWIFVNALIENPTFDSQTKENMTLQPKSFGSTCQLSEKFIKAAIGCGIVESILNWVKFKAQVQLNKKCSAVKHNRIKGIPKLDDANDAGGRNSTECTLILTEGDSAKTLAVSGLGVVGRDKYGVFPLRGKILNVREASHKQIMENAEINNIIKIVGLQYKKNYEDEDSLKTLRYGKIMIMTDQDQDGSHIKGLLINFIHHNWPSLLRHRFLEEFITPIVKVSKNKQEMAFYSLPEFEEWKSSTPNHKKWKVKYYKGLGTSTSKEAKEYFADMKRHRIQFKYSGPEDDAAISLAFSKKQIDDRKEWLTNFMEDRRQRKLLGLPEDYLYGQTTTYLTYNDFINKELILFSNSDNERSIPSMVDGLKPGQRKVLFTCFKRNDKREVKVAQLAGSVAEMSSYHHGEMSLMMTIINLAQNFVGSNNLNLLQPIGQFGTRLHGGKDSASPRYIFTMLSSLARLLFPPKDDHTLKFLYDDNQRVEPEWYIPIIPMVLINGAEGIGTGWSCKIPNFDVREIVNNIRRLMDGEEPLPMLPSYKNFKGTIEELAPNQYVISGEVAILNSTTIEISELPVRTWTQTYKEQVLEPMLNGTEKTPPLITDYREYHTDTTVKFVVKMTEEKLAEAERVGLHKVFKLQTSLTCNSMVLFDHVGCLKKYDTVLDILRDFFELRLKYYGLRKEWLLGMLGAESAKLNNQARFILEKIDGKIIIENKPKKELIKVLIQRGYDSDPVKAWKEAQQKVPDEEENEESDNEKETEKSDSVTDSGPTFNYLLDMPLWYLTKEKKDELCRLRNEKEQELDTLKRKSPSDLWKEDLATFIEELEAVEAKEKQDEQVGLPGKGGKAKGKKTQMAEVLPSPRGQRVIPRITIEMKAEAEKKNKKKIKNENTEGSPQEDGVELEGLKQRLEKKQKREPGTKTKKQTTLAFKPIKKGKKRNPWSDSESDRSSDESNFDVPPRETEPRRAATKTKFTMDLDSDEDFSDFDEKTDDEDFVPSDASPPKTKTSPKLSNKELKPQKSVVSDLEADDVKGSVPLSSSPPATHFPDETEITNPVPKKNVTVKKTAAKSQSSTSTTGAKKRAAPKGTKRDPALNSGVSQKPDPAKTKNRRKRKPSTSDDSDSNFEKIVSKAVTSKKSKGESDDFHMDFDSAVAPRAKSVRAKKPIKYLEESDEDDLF

In general, IC50 refers to the midpoint of a concentration-inhibition curve. On to `O=c1c2cc(Cl)ccc2sc2c(N3CCNCC3)nc3ccccc3c12` [Compound 7, 10-Chloro-6-(piperazin-1-yl)-12H-thiochromeno[2,3-c]quinolin-12-one], for which the half-inhibitory concentration (IC50) was 5.01 ± 1.68 µM in assay [1] (Homo sapiens) and 2.84 ± 0.64 µM in assay [2] (Homo sapiens). Also, the “inhibitory effects in TOP I activity assay compared with CPT” value (“inhibitory effects … compared with CPT” for short) in assay [3] is reported as “more potent inhibitory effects than CPT”. Further, the “inhibitory effects on TOP II compared with the positive agent VP-16” value in assay [4] is recorded as “more potent inhibitory effects than the positive agent VP-16”.
With `O=c1c2cc(Cl)ccc2sc2c(NCc3ccccc3)nc3ccccc3c12` [Compound N25, 6-(Benzylamino)-10-chloro-12H-thiochromeno[2,3-c]quinolin-12-tone], the IC50 is 13.5 ± 0.69 µM in assay [1] (Homo sapiens) and 11.2 ± 1.55 µM in assay [2] (Homo sapiens). In addition, the “inhibitory effects … compared with CPT” value in assay [3] was “more potent inhibitory effects than CPT”.
Take `CCN(CC)CCNc1nc2ccccc2c2c(=O)c3cc(Cl)ccc3sc12` [Compound N8, 10-Chloro-6-((2-(diethylamino)ethyl)amino)-12H-thiochromen o[2,3-c]quinolin-12-one]: the half-maximal inhibitory concentration (IC50) stood at 1.73 ± 0.72 µM in assay [1] (Homo sapiens) and 1.11 ± 0.69 µM in assay [2] (Homo sapiens). In addition, the “inhibitory effects on TOP II compared with the positive agent VP-16” value in assay [4] is reported as “more potent inhibitory effects than the positive agent VP-16”.
Consider `O=c1c2cc(Cl)ccc2sc2c(NCCCNCCO)nc3ccccc3c12` [Compound N19, 10-Chloro-6-((3-((2-hydroxyethyl)amino)propyl)amino)-12H-th iochromeno[2,3-c]quinolin-12-one], for which the IC50 in assay [1] (Homo sapiens) worked out at 1.5 ± 1.32 µM; in assay [2] (Homo sapiens), 1.98 ± 0.72 µM. Moreover, in assay [4], the “inhibitory effects on TOP II compared with the positive agent VP-16” value is reported as “more potent inhibitory effects than the positive agent VP-16”.
For the molecule `CN(C)CCCNc1nc2ccccc2c2c(=O)c3cc(Cl)ccc3sc12` [Compound N17, 10-Chloro-6-((3-(dimethylamino)propyl)amino)-12H-thiochrom eno[2,3-c]quinolin-12-one], the half-inhibitory concentration (IC50) in assay [1] (Homo sapiens) came out at 2.7 ± 0.16 µM; in assay [2] (Homo sapiens), 2.27 ± 0.09 µM. Besides, in assay [3], the “inhibitory effects … compared with CPT” value is “more potent inhibitory effects than CPT”.
In the case of `O=c1c2cc(Cl)ccc2sc2c(N3CCC(N4CCCCC4)CC3)nc3ccccc3c12` [Compound 18, 6-([1,4'-Bipiperidin]-1'-yl)-10-chloro-12H-thiochromeno[2,3-c]q uinolin-12-one], the half-maximal inhibitory concentration (IC50) turned out to be 10.2 ± 2.03 µM in assay [1] (Homo sapiens) and 14.2 ± 1.41 µM in assay [2] (Homo sapiens).
On the same counts, the results for `O=c1c2cc(Cl)ccc2sc2c(N3CCC(Cc4ccccc4)CC3)nc3ccccc3c12` [Compound 17, 6-(4-Benzylpiperidin-1-yl)-10-chloro-12H-thiochromeno[2,3-c]q uinolin-12-one] are above 15 µM and above 15 µM.
On the same counts, the results for `CC(C)CNc1nc2ccccc2c2c(=O)c3cc(Cl)ccc3sc12` [Compound N5, 10-Chloro-6-isobutylamino-12H-thiochromeno[2,3-c]quinolin-12-one] are above 15 µM and above 15 µM.
Take `O=c1c2cc(Cl)ccc2sc2c(NCCCO)nc3ccccc3c12` [Compound N10, 10-Chloro-6-(3-propanolamino)-12H-thiochromeno[2,3-c]quin olin-12-one]: the values for the IC50 in assay [1] and in assay [2] were 5.94 ± 2.03 µM and 6.31 ± 4.11 µM, respectively.
For the molecule `O=c1c2cc(Cl)ccc2sc2c(NCCc3ccccc3)nc3ccccc3c12` [Compound N30, 10-Chloro-6-(phenethylamino)-12H-thiochromeno[2,3-c]quinol in-12-one], the IC50 in assay [1] (Homo sapiens) and in assay [2] (Homo sapiens) was above 15 µM throughout.
In the case of `O=c1c2cc(Cl)ccc2sc2c(N3CCCCC3)nc3ccccc3c12` [Compound 15, 10-Chloro-6-(piperidin-1-yl)-12H-thiochromeno[2,3-c]quinolin-12-one], the IC50 is 13.4 ± 2.87 µM in assay [1] (Homo sapiens) and above 15 µM in assay [2] (Homo sapiens).
On the same counts, the results for `O=c1c2cc(Cl)ccc2sc2c(NCc3ccc4c(c3)OCO4)nc3ccccc3c12` [Compound N27, 6-((Benzo[d][1,3]dioxol-5-ylmethyl)amino)-10-chloro-12H-thio chromeno[2,3-c]quinolin-12-one] are 11.8 ± 5.83 µM and above 15 µM.
